This is an account of results in PMC1716192, “A Plant-Derived Morphinan as a Novel Lead Compound Active against Malaria Liver Stages” (PLoS Medicine, 2006).

Type in all cases: cell-based
Data set [1] relates to primary mouse hepatocytes. The data set is described as follows: In vitro assay for cell viability (neutral red), mouse hepatocytes. To be noted: 48 h drug exposure. How it is done: Primary hepatocytes of mice or humans were prepared as above and seeded in 96-well plates coated with collagen, at a density of 5 × 10^4 and 7 × 10^4 cells per well, respectively. Drugs were added to the culture medium, which was changed daily after 24 h or 48 h of incubation for mouse and human hepatocytes, respectively. After 48 h of drug exposure (mouse hepatocytes) or 5 d (human hepatocytes), 50 μl of neutral red (Sigma) at 0.02% in phosphate-buffered saline (PBS) were added per well and incubated for 24 additional hours. Cultures were then washed with PBS and the neutral red extracted with 1% SDS from viable cells and quantified by measuring the OD540 on a microplate autoreader photometer (BioTek Instruments, Winooski, Vermont, United States).
(§1) IC50 and TC50 were calculated by nonlinear regression using four-parameter logistic curves on the SigmaPlot 10.0 software (http://www.systat.com). Each IC50 or TC50 is expressed as a mean between two independent experiments, followed by the standard error of the mean.

Data set [2] relates to P. falciparum (NF 54 strain) hepatic stages. The data set is described as follows: In vitro assay for P. falciparum liver stage inhibition in primary human hepatocytes. To be noted: for IC50 / IC90: 120 h. As for the experimental part: (§2) P. yoelii (265 BY strain) and P. falciparum (NF 54 strain) sporozoites were obtained by dissection of infected Anopheles stephensi salivary glands. Primary mouse hepatocytes were isolated as previously described and seeded in eight-well Lab-Tek plastic chamber slides (VWR, Fontenay-sous-Bois, France) previously coated with rat-tail collagen I (BD Biosciences, Le Pont de Claix, France) at a density of 10^5 cells per well. Mouse hepatocytes were cultured at 37 °C in 5% CO2 in William's E medium supplemented with 10% fetal calf serum, 1% L-glutamine, 1% sodium pyruvate, 1% insulin-transferrin-selenium, 1% nonessential amino acids, and 1% penicillin-streptomycin (all from Invitrogen, Cergy-Pontoise, France), for 24 h before inoculation of P. yoelii sporozoites (10^5 per well). Human liver fragments were collected following informed consent provided from patients undergoing a partial hepatectomy. The collection and use of these tissues were undertaken in accordance with French Government ethical regulations. Primary human hepatocytes were isolated from the healthy parts of these liver biopsies as previously described. Human hepatocytes were seeded in LabTek plastic chamber slides coated with collagen, at a density of 1.8 × 10^5 cells per well and cultured at 37 °C in 5% CO2 in the same medium as above, supplemented with 10^−7 M dexamethasone (Sigma) and 2% DMSO after complete cell adherence (12–24 h), for at least 48 h before inoculation of P. falciparum sporozoites (10^5 per well). For a standard assay, the plant extract, the purified compound, or primaquine was solubilized in DMSO, further diluted in culture medium (equal DMSO concentrations of <0.3% per well), and then added to hepatocyte cultures at the time of sporozoite inoculation. Three hours later, after sporozoite penetration into hepatocytes, cultures were washed and further incubated in the presence of the drug. Culture medium containing the appropriate drug concentration was changed daily until 48 h for P. yoelii, or until 5 d for P. falciparum. Parasites were quantified on the last day of incubation. For the in vitro timing experiments, tazopsine treatment of P. yoelii and P. falciparum cultures was undertaken for different periods during the cultivation: 0 h to 3 h, 3 h to 24 h, or 24 h to 48 h after P. yoelii sporozoite inoculation (quantification at 48 h), or 0 h to 2 d, or 3 d to 5 d after P. falciparum sporozoite inoculation (quantification at 5 d). […] Cells were stained with Evans Blue (0.4%), and parasites and cells nuclei were stained with 1 μg/ml of diamidino-phenylindole (DAPI; Sigma). Parasite numbers were counted under a fluorescence microscope with a 25× light microscope objective. IC50 values, the drug concentration at which a 50% reduction in the number of parasites was observed, as compared to the number in the DMSO control cultures, were derived from two independent experiments in which each concentration was tested in triplicate wells.
as §1

Data set [3] relates to P. yoelii (265 BY strain) hepatic stages. The data set is described as follows: In vitro assay for P. yoelii liver stage inhibition in primary mouse hepatocytes. To be noted: for IC50 / IC90: 48 h. How it is done: as §2, with “objective.” for “objective. IC50 values, the drug concentration at which a 50% reduction in the number of parasites was observed, as compared to the number in the DMSO control cultures, were derived from two independent experiments in which each concentration was tested in triplicate wells.”
as §1

Setting [4] is: Plasmodium falciparum, Hepatocyte.

Consider `COC1=C2[C@@H]3[C@H](O)c4ccc(OC)c(O)c4[C@]2(CCN3C2CCCC2)C[C@H](O)[C@@H]1O` [NCP-tazopsine, N-cyclopentyl-tazopsine], for which the TC50 in data set [1] stood at 150.5 ± 9.5 µM. The IC50 (in general, the concentration at which inhibition is half-maximal) in data set [2] (setting [4]) came to 42.4 µM; in data set [3] (Plasmodium yoelii, Hepatocyte) it was 3.3 ± 0.05 µM. Moreover, the IC90 (commonly the point of the concentration-response curve where the effect stands at 90%) in data set [2] (setting [4]) stood at 95.4 ± 6.6 µM; in data set [3] (Plasmodium yoelii, Hepatocyte) it was 5.2 ± 1.4 µM.

As for `COC1=C2[C@H]3NCC[C@]2(C[C@H](O)[C@@H]1O)c1c(ccc(OC)c1O)[C@H]3O` [Tazopsine, tazopsine], the TC50 in data set [1] was found to be 43.7 ± 1.6 µM. In addition, the “phase of hepatic development most susceptible to inhibition” value in data set [2] (P. falciparum, exposure 0 h-2 d or 3 d-5 d) is listed as “most susceptible to inhibition during the early stage of trophozoite development”. In data set [2] (P. falciparum-infected primary human hepatocyte cultures), the “concentration at which parasite development fully inhibited” value is at least 28 µM. In data set [2] (setting [4]), it took 10 µM to reach the 80% level (IC80), it took 4.2 ± 0.1 µM to reach half-maximal inhibition (IC50) and the IC90 was 18.3 ± 2.8 µM. For the same compound, in data set [2] (suboptimal inhibitory concentrations, 5 d), the “size of surviving hepatic parasites versus control cultures” value is listed as “significantly smaller”. Moreover, the “phase of hepatic development most susceptible to inhibition” value in data set [3] (P. yoelii, exposure 0-3 h, 3-24 h or 24-48 h) is listed as “most pronounced during the early developmental stages of the hepatic parasite (3 to 24 h)”. Moreover, in data set [3] (Plasmodium yoelii, Hepatocyte), the IC80 (as a rule, the concentration needed for an effect of 80%) was 5 µM; it took 3.1 ± 0.1 µM to reach half-maximal inhibition (IC50); the 90% effect concentration (IC90) worked out at 6.3 ± 0.8 µM. Further, the “concentration giving total inhibition” value in data set [3] (cultured P. yoelii hepatic stages) is at least 7.1 µM. Further, in data set [3] (exposure 0-3 h postinfection, suboptimal inhibitory concentrations), the “Sporozoite invasion and differentiation into early hepatic stages” value was “not affected”.
